Experimental data taken from patent US20100278847A1, “MUTUALLY SUPPRESSIVE GENE/INHIBITOR COMBINATIONS FOR NON-ANTIBIOTIC SELECTION OF RECOMBINANT STRAINS” (priority 2007, published 2010).

Experiments:
[1] = test system: DH5α; assay: Growth rate from exponential phase (OD550 over time); format: cell-based, E. coli; conditions: media containing 0-2 μM triclosan
Procedure: Growth rate was calculated from the exponential phase of growth, which was monitored as increased OD550 over time by the VERSAmax spectrophotometer (Molecular Devices). An overnight culture (16 h), standardized by OD550 to yield approximately 7×10^5 cfu/ml, was grown in 200 μl volumes per well in a 96-well plate for 24 h with agitation for 5 s every 5 min, when OD550 readings were taken. Triclosan dissolved in DMSO was added to give 0-2 μM Triclosan and 1% DMSO final concentrations.

[2] = test system: DH5α/pFab; assay: Cell viability, SYTOX green staining flow cytometry; format: cell-based, E. coli; conditions: 0.5-2 μM triclosan, overnight culture
Procedure: DH5α/pFab were grown overnight in the absence or presence of 0.5-2 μM triclosan and subjected to SYTOX green staining flow cytometry, as previously described (Roth et al. 1997). DH5α/pUC19 was included as a control for green fluorescence of live and heat-treated dead cells. Samples were excited with a 488 nm air-cooled argon ion laser in the CyFlow SL flow cytometer (Partec GmbH). Threshold settings were enabled on forward scatter to exclude cell debris. The forward and side scatter dot plot was used to identify and gate cell populations. Fluorescence was measured at 520 nm Viable and dead cell populations were counted using the Partec FloMax software version 2.4e.

[3] = cited from earlier work

## Oc1cc(Cl)ccc1Oc1ccc(Cl)cc1Cl [triclosan]
[1]
  Triclosan concentration at which growth rates of pUCFA and pFab clones were highest: 1 μM
[2]
  Proportion of green fluorescent (dead) cells in DH5α/pFab culture: decreased with increasing triclosan concentrations
[3]
  Solubility in water: poor solubility in water
